The test system of test [1] is U-251 cells. Nature of the test: Immunoblotting with densitometry, U-251. The test is classed as cell-based, human. How it is done: The K562 and U-251 cells were seeded in 3 cm Petri dishes (Nunc) at a density of 500,000 cells per well and incubated overnight. […] Next, the cell pellets were resuspended in an RIPA buffer containing a Halt Protease Inhibitor Cocktail and a Halt Phosphatase Inhibitor Cocktail along with 0.5 M EDTA (all from Thermo Scientific, Waltham, MA, USA) and lysed on ice for 20 min. Then, the obtained lysates were sonicated and centrifuged at 10,000 rpm for 10 min at 4 °C. The supernatants were collected for further analysis. The protein concentration was measured using a Micro BCA™ Protein Assay Kit (Thermo Scientific) according to the manufacturer’s instructions. Equal amounts of the proteins (16 μg) were electrophoresed on SDS-Page gels and transferred onto nitrocellulose membranes. The membranes were blocked in 5% non-fat milk prepared in TPBS (PBS containing 0.1% Tween-20) for 1 h. After blocking, the membranes were incubated with the specific primary antibodies (all from Cell Signaling) at a 1:1000 dilution—cyclin E, cdc2, PARP, AIF, BID, p53, p21^Waf1/Cip1, HIF-1α, cathepsin B and caspase-9—and at a 1:2000 dilution for the reference proteins—vinculin, β-actin and GAPDH—overnight at 4 °C. The next day, the membranes were washed in TPBS and incubated with horseradish peroxidase (HRP)-conjugated secondary antibodies for 1 h at room temperature. Lastly, the membranes were washed in TPBS and incubated with a SuperSignal™ West Pico Chemiluminescent Substrate (Thermo Scientific). The chemiluminescence signals were captured using a ChemiDoc™ XRS + System (Biorad). The experiments were performed at least four to five times. The densitometric analysis was conducted using ImageJ software (Wayne Rasband, National Institutes of Health, Bethesda, MD, USA).
The band intensity of tested proteins (p53, cyclin E1, cdc2, p21, HIF-1α, cathepsin b, PARP, caspase-9, BID, AIF) were analyzed by densitometry readings/intensity ratio, using ImageJ software (NIH) and were normalized to the corresponding reference proteins (GAPDH, vinculin or β-actin) value.
The densitometric readings/intensity ratio data from four/five independent experiments (compared to control): […]
p53/ Refer- p21/ Refer- cdc2/ Refer- Cyclin E1/ HIF-1α/ Cathepsin b/Reference ence ence ence Reference Reference
PARP/Reference BID/ Reference Caspase-9/Reference […]

Another test has as its system HCT 116 p53^+/+ cells. Nature of the test: MTS cytotoxicity assay, HCT 116 p53+/+. It counts as cell-based, human. An excerpt:
(§1) M. Rusin from the Maria Sklodowska-Curie Memorial Cancer Centre and Institute of Oncology in Gliwice, Poland. […] G. Kramer-Marek from the Institute of Cancer Research in London, United Kingdom. The human suspension chronic myelogenous leukemia cell line K562 and pancreas ductal adenocarcinoma cell line PANC-1 were purchased from Sigma-Aldrich (St. Louis, MO, USA), while the normal human dermal fibroblasts cell line NHDF were purchased from PromoCell. […] Each medium contained a combination of two antibiotics: penicillin and streptomycin (1% v/v; Gibco). All of these cell lines were grown under standard conditions at 37 °C with a 5% CO2 humidified atmosphere. Moreover, all of the cell lines were routinely tested for mycoplasma using the PCR technique with specific Mycoplasma primers to confirm that there was no contamination.
(§2) The assay was performed following a 72 h incubation with the various concentrations of the tested compounds. Then, 100 µL DMEM without phenol red with 20 µL of the CellTiter 96®AQueous One Solution-MTS (Promega, Promega, WI, USA) was added to each well and incubated for 1 h or 3 h (PANC-1) at 37 °C. The optical densities of the samples were measured at 490 nm using a multi-plate reader (Synergy 4, BioTek, Winooski, VT, USA). […] Each individual compound was tested in triplicate in a single experiment with each experiment being performed three or four times.
For orientation: Tetrazolium assays rely on reduction of a dye to a coloured formazan, in cell work by metabolically active cells.

The subject of another test is HCT 116 p53^−/− cells. Nature of the test: MTS cytotoxicity assay, HCT 116 p53-/-. It counts as cell-based, human.
Source text: as §1, §2

A further test concerns K562 cells. As to the kind of experiment: MTS cytotoxicity assay, K562. The test is classed as cell-based, human.
Source text: as §1, §2

The next test addresses T1, Fyn A (Homo sapiens, UniProt P06241).
T1 construct: purchased Promega
As to the kind of experiment: Tyrosine kinase assay (Kinase Selectivity TK-2, ADP-Glo). It counts as biochemical. As to conditions: read-out: Inhibitory Effect of the Tyrosine Kinase Activity, Fyn A. How it is done:
(§3) Assays using the Kinase Selectivity TK-2 profiling systems and ADP-Glo Kinase Assay (both from Promega) were performed to determine the inhibition of the non-receptor tyrosine kinases. The protocol was previously designed and described by our group in reports. The experiments were performed at least four times. The data are expressed as the percentage of the inhibition activity of tyrosine kinase after treatment with the tested derivatives.

The next test addresses T2, BRK (Homo sapiens, UniProt Q13882).
T2 construct: purchased Promega
The description is as above. The test is classed as biochemical. As to conditions: read-out: Inhibitory Effect of the Tyrosine Kinase Activity, BRK. The method, then: as §3

In the next test the target is T3, Lyn B (Homo sapiens, UniProt P07948).
T3 construct: purchased Promega
T3 sequence (P07948 1-491 isoform P07948-2): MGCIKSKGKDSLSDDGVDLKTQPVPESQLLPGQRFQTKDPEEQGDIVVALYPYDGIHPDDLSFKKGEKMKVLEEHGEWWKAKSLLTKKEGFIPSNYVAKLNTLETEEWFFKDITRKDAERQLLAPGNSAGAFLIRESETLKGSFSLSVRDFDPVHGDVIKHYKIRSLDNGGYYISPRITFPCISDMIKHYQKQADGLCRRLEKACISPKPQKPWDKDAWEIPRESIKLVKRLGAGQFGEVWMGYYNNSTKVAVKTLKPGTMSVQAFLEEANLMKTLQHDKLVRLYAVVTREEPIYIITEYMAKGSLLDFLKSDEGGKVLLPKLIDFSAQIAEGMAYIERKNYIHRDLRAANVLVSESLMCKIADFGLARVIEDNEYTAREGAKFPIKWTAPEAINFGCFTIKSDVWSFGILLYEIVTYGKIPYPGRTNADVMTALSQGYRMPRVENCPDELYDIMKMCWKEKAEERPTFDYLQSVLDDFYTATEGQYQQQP
Described as above. The test is classed as biochemical. To be noted: read-out: Inhibitory Effect of the Tyrosine Kinase Activity, Lyn B. The method, then:
as §3

In the next test the target is T4, CSK (Homo sapiens, UniProt P41240).
T4 construct: purchased Promega
T4 sequence (P41240 whole entry): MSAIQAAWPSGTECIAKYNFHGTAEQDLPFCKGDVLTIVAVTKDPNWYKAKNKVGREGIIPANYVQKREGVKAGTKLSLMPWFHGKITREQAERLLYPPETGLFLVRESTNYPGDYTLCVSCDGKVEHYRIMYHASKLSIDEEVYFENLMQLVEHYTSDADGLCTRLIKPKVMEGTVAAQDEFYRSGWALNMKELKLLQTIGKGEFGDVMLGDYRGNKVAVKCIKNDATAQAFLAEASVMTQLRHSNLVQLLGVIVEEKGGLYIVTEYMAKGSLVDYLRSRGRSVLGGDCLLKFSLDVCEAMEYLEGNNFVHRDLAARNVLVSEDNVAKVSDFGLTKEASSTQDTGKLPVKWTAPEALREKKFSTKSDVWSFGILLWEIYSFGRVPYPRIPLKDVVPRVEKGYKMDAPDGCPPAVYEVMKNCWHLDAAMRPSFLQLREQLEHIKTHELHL
The test is described as above. It counts as biochemical. To be noted: read-out: Inhibitory Effect of the Tyrosine Kinase Activity, CSK. The method, then: as §3

For the next test, the system named is A549 cells. Nature of the test: MTS cytotoxicity assay, A549. It counts as cell-based, human.
Source text: as §1, §2

The test system of another test is MCF-7 cells. As to the kind of experiment: MTS cytotoxicity assay, MCF-7. It counts as cell-based, human.
Source text: as §1, §2

The test system of the next test is PANC-1 cells. Nature of the test: MTS cytotoxicity assay, PANC-1. The test is classed as cell-based, human.
Source text: as §1, §2

In test [2] the test system is U-251 cells. Nature of the test: MTS cytotoxicity assay, U-251. The test is classed as cell-based, human.
Source text: as §1, §2

The subject of a further test is NHDF cells. Nature of the test: MTS cytotoxicity assay, normal fibroblasts NHDF. It counts as cell-based. As to conditions: NHDF normal human fibroblasts, 72 h incubation.
Source text: as §1, §2

Bounds are passed on as bounds.

T1 sequence (P06241 whole entry): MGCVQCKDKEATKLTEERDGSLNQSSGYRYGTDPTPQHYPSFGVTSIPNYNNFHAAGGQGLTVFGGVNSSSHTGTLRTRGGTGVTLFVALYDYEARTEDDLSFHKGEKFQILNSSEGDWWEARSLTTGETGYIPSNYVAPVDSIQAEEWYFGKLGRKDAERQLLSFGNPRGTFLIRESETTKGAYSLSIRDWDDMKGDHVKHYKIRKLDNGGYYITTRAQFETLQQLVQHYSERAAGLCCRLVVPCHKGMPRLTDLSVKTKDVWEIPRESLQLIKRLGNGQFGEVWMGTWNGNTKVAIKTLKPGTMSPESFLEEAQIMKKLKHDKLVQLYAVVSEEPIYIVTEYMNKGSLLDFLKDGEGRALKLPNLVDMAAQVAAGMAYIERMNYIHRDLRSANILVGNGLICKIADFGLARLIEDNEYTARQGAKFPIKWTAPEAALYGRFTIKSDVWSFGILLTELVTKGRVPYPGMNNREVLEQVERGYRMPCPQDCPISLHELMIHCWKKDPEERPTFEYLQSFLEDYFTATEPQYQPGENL
T2 sequence (Q13882 whole entry): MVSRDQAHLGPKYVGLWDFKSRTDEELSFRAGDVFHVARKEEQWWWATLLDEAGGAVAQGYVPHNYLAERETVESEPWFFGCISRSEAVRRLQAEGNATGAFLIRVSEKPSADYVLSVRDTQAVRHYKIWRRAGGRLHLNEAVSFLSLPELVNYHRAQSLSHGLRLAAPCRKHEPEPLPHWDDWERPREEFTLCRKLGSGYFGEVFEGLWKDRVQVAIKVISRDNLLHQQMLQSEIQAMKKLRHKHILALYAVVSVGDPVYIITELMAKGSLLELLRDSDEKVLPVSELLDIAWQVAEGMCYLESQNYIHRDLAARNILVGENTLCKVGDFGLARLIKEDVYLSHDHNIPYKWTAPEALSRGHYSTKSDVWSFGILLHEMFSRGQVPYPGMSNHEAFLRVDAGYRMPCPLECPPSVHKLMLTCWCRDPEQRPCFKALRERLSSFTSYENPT

`COc1ccccc1/C=C/c1nc(OS(=O)(=O)c2ccc(C)cc2)c2ccccc2n1` [BS4, 2-((E)-2-(2-methoxyphenyl)ethenyl)quinazolin-4-yl 4-methylbenzenesulfonate]: in the test with U-251 cells [1] (U-251, 6 μM, 24 h), the “Cleavage product of caspase-9 (Western blot)” value was “approximately three-fold increase”. In addition, in the test on U-251 cells [1] (U-251, 24 h), the “HIF-1α protein expression (Western blot)” value is “significant decrease”. Further, the “p21 protein expression (Western blot)” value in the test on U-251 cells [1] (U-251, 24 h) is on record as “more than two-fold increase”. Also, in the test with U-251 cells [1] (U-251, 24 h), the “p53 protein levels (Western blot)” value is on record as “statistically significant increase”. For the same compound, the half-maximal inhibitory concentration (IC50) – broadly, the midpoint of a concentration-inhibition curve – in the test on HCT 116 p53^+/+ cells (Homo sapiens, HCT 116 p53^+/+, 72 h incubation, MTS) came to 1.57 ± 0.357 µM; with HCT 116 p53^−/− cells (Homo sapiens, HCT 116 p53^−/−, 72 h incubation, MTS), 3.72 ± 0.487 µM; in the test on K562 cells (Homo sapiens, K562, 72 h incubation, MTS) it was 0.173 ± 0.031 µM; in the test with A549 cells (Homo sapiens, A549, 72 h, A549, 72 h incubation, MTS), 11.3 ± 1.76 µM; in the test on MCF-7 cells (Homo sapiens, MCF7, MCF-7, 72 h incubation, MTS), 9.13 ± 2.05 µM; with PANC-1 cells (Homo sapiens, PANC-1, 72 h incubation, MTS), 0.235 ± 0.042 µM. The IC50 with U-251 cells [2] (Homo sapiens, U-251, 72 h incubation, MTS) is 1.91 ± 0.214 µM; in the test on NHDF cells it was above 25 µM. For the same compound, the “Selectivity index, HCT 116 p53+/+” value in the test on HCT 116 p53^+/+ cells (NHDF vs HCT 116 p53+/+) came to 15.95. The “Selectivity index, HCT 116 p53 −/−” value with HCT 116 p53^−/− cells (NHDF vs HCT 116 p53 −/−) turned out to be 6.71. Besides, the “Selectivity index, K562” value in the test with K562 cells (normal fibroblasts NHDF vs K562) was determined as 144.51. In addition, the inhibition at 0.5 µM on Fyn A is 3.51%; on BRK, 35.5%; at Lyn B, 0%; on CSK, 28.3%. Further, the “Selectivity index, A549” value with A549 cells (NHDF vs A549) amounted to 2.20. The “Selectivity index, MCF-7” value in the test on MCF-7 cells (NHDF vs MCF-7) came out at 2.74. Also, the “Selectivity index, PANC-1” value in the test on PANC-1 cells (NHDF vs PANC-1) stood at 106.38. Further, the “Selectivity index, U-251” value in the test on U-251 cells [2] (NHDF vs U-251) is 13.11.

The values above are taken from PMC8068801, “Novel Benzenesulfonate Scaffolds with a High Anticancer Activity and G2/M Cell Cycle Arrest” (Cancers, 2021).
